The values that follow come from patent US9475779B2, “Substituted bicyclic dihydropyrimidinones and their use as inhibitors of neutrophil elastase activity” (priority 2014, dated 2016).

A word on the IC50: it is the concentration at which inhibition is half-maximal. As usually defined, the solubility is the concentration that dissolves in the medium under given conditions. The term EC50 denotes the concentration giving half of the maximal effect. Higher therefore signals a less potent agent. Usually inhibition stands for the percentage by which the read-out fell short of the control. High values mean a response far below the control, low ones a response near the control. As usually defined, the Aqueous solubility is the concentration that dissolves in the medium under given conditions. A lower Aqueous solubility goes with little dissolved substance.

Molecules are shown by their SMILES. ≈ marks a conversion by molar mass, not a printed value. Where two headings read alike, the source gives them in different places.

Data set [1] in a line: Metabolic stability with human liver microsomes. In kind it is in vitro ADME. The following applies: for half-life at 1 μM: human, pH 7.6, pooled human liver microsomes, read-out: t1/2 INVITRO. (Microsomes from liver hold many membrane-bound enzymes, among them those of drug oxidation.)
Data set [2] has as its target T1, neutrophil elastase (Homo sapiens (Human), UniProt P08246). Put plainly: biochemical. In kind it is biochemical.
Experimental: Human Neutrophil Elastase Assay
All other materials were of the highest grade commercially available.
The following buffers were used: Compound buffer: 100 mM Tris, 500 mM NaCl, adjusted to pH 7.5; Assay buffer: 100 mM Tris, 500 mM NaCl, adjusted to pH 7.5, containing 0.01% BSA.
Assay conditions: Test compounds were prediluted in DMSO and subsequently in compound buffer (5% DMSO final). […] After inactivation of the enzyme, fluorescence intensities were measured at 380 nm excitation and 460 nm emission wavelengths.
Each plate contains wells with a high value control (DMSO+enzyme+substrate) and wells with a low value control (DMSO+inactivated enzyme+substrate). IC50 values were estimated using a sigmoidal concentration response curve with variable slope. Means of low values were taken as 0%, means of high values as 100%.
A further data set in a line: physchem. In kind it is physicochemical. The following applies: for solubility at 24 h: McIlvaine buffer pH 6.8 containing 2.5% DMSO, pH 6.8, aqueous buffer, kinetic from dmso stock, McIlvaine buffer pH 6.8, 2.5% DMSO.
Data set [3] concerns the target T1, neutrophil elastase. Put plainly: biochemical.
A short description of a further data set: in vitro. In kind it is in vitro ADME. The following applies: human, pH 7.2, 37° C.; for Papp A→B at 10 μM: Caco-2, pH 7.2, Caco-2, apical-to-basal, read-out: PEAB; for Papp B→A at 10 μM: Caco-2, pH 7.2, Caco-2, basal-to-apical, read-out: PEBA.
Another data set concerns the target hERG potassium channel (Homo sapiens (Human), UniProt Q12809). Put plainly: in vitro.
Another data set concerns Caco-2 cells. Description: in vitro. Type of data set: in vitro ADME. The following applies: pH 7.2.
The mark [4] stands for this setting: pooled human liver microsomes, 1 μM test compound, 37° C.
Setting [5] is: Neutrophil Elastase assay, substrate MeOSuc-Ala-Ala-Pro-Val-AMC, read-out: IC50.

T1 sequence (P08246 whole entry, looked up): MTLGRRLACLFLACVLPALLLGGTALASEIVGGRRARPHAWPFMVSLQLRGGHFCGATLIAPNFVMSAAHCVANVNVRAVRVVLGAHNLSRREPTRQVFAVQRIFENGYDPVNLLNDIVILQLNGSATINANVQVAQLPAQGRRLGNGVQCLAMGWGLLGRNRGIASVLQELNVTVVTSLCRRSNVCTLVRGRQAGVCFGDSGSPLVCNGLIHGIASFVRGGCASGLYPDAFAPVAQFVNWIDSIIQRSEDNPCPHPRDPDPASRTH

Turning to `CCS(=O)(=O)c1cc(C#N)ccc1C1NC(=O)N(c2cccc(C(F)F)c2)C2=C1C(=O)CC2` (single isomer, unassigned) [Example D.5A, 4-[1-(3-Difluoromethyl-phenyl)-2,5-dioxo-2,3,4,5,6,7-hexahydro-1H-cyclopentapyrimidin-4-yl]-3-ethanesulfonyl-benzonitrile], the half-life at 1 μM in data set [1] (setting [4]) is greater than 2.17 h. The molecule also displayed a half-maximal inhibitory concentration (IC50) at neutrophil elastase [2] (IC50) of 2.2 nM. Further, in “physchem”, the concentration in solution (solubility at 24 h) came to 67 µg/mL (≈ 142 µM). This molecule also yielded an EC50 at neutrophil elastase [3] of 1 nM. In addition, in the data set “in vitro”, the Papp A→B at 10 μM amounted to 7.5 ×10⁻⁶ cm/s and the Papp B→A at 10 μM amounted to 78 ×10⁻⁶ cm/s.
Consider `CN1C(=O)N(c2ccnc(C(F)(F)F)c2)C2=C(C(=O)CC2)C1c1ccc(C#N)cc1S(C)(=O)=O` (single isomer, unassigned) [Example D.1A, 3-Methanesulfonyl-4-[3-methyl-2,5-dioxo-1-(2-trifluoromethyl-pyridin-4-yl)-2,3,4,5,6,7-hexahydro-1H-cyclopentapyrimidin-4-yl]-benzonitrile], for which the half-life at 1 μM in data set [1] (setting [4]) is greater than 2.17 h. This molecule yielded an inhibition at 10 µM on hERG potassium channel of 8%. For the same molecule, in the data set “in vitro”, the Papp A→B at 10 μM is 19 ×10⁻⁶ cm/s and the Papp B→A at 10 μM was 81 ×10⁻⁶ cm/s.
For the molecule `CN1C(=O)N(c2cccc(C(F)(F)F)c2)C2=C(C(=O)CC2)C1c1ccc(C#N)cc1C(C)(C)O` (centres unmarked) [Example A.2, 3-(1-Hydroxy-1-methyl-ethyl)-4-[3-methyl-2,5-dioxo-1-(3-trifluoromethyl-phenyl)-2,3,4,5,6,7-hexahydro-1H-cyclopentapyrimidin-4-yl]-benzonitrile], in data set [1] (setting [4]), the half-life at 1 μM was greater than 2.17 h. Besides, the IC50 at neutrophil elastase [2] (read-out: IC50) is less than 1 nM. This molecule came in with an EC50 at neutrophil elastase [3] of 1 nM. In the data set “in vitro”, the Papp A→B at 10 μM was 92 ×10⁻⁶ cm/s and the Papp B→A at 10 μM was found to be 80 ×10⁻⁶ cm/s.
Consider `CN1C(=O)N(c2cccc(C(F)(F)F)c2)C2=C(C(=O)CC2)[C@H]1c1ccc(C#N)cc1[S+](C)[O-]` (single isomer, unassigned) [Example C.1B, 3-Methanesulfinyl-4-[3-methyl-2,5-dioxo-1-(3-trifluoromethyl-phenyl)-2,3,4,5,6,7-hexahydro-1H-cyclopentapyrimidin-4-yl]-benzonitrile], for which the “t1/2 INVITRO” value in data set [1] (setting [4]) stood at 1.55 h. Also, at neutrophil elastase [2] (read-out: IC50), the IC50 was less than 1 nM. The Aqueous solubility in “physchem” was determined as 61 µg/mL. Further, on neutrophil elastase [3], the 50% effective concentration (EC50) was 1 nM. Further, the Papp B→A at 10 μM in the data set “in vitro” turned out to be 41 ×10⁻⁶ cm/s. Also, the PEAB with Caco-2 cells is 3.7 ×10⁻⁶ cm/s.
As to `CCNC(=O)N1C(=O)N(c2ccnc(C(F)(F)F)c2)C2=C(C(=O)CC2)C1c1ccc(C#N)cc1S(=O)(=O)CC` (single isomer, unassigned) [Example D.4.1A, 4-(4-cyano-2-ethanesulfonyl-phenyl)-2,5-dioxo-1-(2-trifluoromethyl-pyridin-4-yl)-1,2,4,5,6,7-hexahydro-cyclopentapyrimidine-3-carboxylic acid ethylamide], the half-life at 1 μM in data set [1] (setting [4]) is greater than 2.17 h. The IC50 on neutrophil elastase [2] (IC50) is less than 1 nM. For the same molecule, in “physchem”, the solubility at 24 h was 81 µg/mL (≈ 144 µM). The EC50 at neutrophil elastase [3] is less than 1 nM. For the same molecule, in “in vitro”, the Papp A→B at 10 μM is 3.6 ×10⁻⁶ cm/s and the Papp B→A at 10 μM amounted to 61 ×10⁻⁶ cm/s.
As to `CC(O)c1cc(C#N)ccc1C1C2=C(CCC2=O)N(c2cccc(C(F)(F)F)c2)C(=O)N1C` (centres unmarked) [Example A.3, 3-(1-Hydroxy-ethyl)-4-[3-methyl-2,5-dioxo-1-(3-trifluoromethyl-phenyl)-2,3,4,5,6,7-hexahydro-1H-cyclopentapyrimidin-4-yl]-benzonitrile], the half-life at 1 μM in data set [1] (setting [4]) is greater than 2.17 h. The molecule also showed a solubility at 24 h in “physchem” of 65 µg/mL (≈ 143 µM). In addition, in “in vitro”, the Papp A→B at 10 μM was 67 ×10⁻⁶ cm/s and the Papp B→A at 10 μM amounted to 87 ×10⁻⁶ cm/s.
With `CCS(=O)(=O)c1cc(C#N)ccc1C1C2=C(CCC2=O)N(c2ccnc(C(F)(F)F)c2)C(=O)N1C` (single isomer, unassigned) [Example D.3B, 3-Ethanesulfonyl-4-[3-methyl-2,5-dioxo-1-(2-trifluoromethyl-pyridin-4-yl)-2,3,4,5,6,7-hexahydro-1H-cyclopentapyrimidin-4-yl]-benzonitrile], the half-life at 1 μM in data set [1] (setting [4]) was found to be 2 h. Also, the IC50 on neutrophil elastase [2] (read-out: IC50) was 1.4 nM. The molecule further showed an EC50 on neutrophil elastase [3] of 1 nM. In addition, in the data set “in vitro”, the Papp A→B at 10 μM is 21 ×10⁻⁶ cm/s and the Papp B→A at 10 μM was 85 ×10⁻⁶ cm/s.
The like results for `CNC(=O)N1C(=O)N(c2cc(C(F)(F)F)ccn2)C2=C(C(=O)CC2)C1c1ccc(C#N)cc1S(C)(=O)=O` (centres unmarked) [D.4.4] were, in that order, greater than 2.17 h, less than 1 nM, 2 nM, 3.1 ×10⁻⁶ cm/s and 60 ×10⁻⁶ cm/s.
Consider `CC[S+]([O-])c1cc(C#N)ccc1C1C2=C(CCC2=O)N(c2cccc(C(F)(F)F)c2)C(=O)N1C` (single isomer, unassigned) [Example C.5.1, 3-Ethanesulfinyl-4-[3-methyl-2,5-dioxo-1-(3-trifluoromethyl-phenyl)-2,3,4,5,6,7-hexahydro-1H-cyclopentapyrimidin-4-yl]-benzonitrile], for which, in data set [1] (setting [4]), the half-life at 1 μM was found to be 1.83 h. This molecule gave a solubility at 24 h in the data set “physchem” of 86 µg/mL (≈ 176 µM). Besides, the Papp B→A at 10 μM in the data set “in vitro” stood at 57 ×10⁻⁶ cm/s. Also, in the data set on Caco-2 cells, the PEAB was 7.1 ×10⁻⁶ cm/s.
On to `CCNC(=O)N1C(=O)N(c2cc(C(F)(F)F)ccn2)C2=C(C(=O)CC2)C1c1ccc(C#N)cc1S(C)(=O)=O` (centres unmarked) [D.4.5], for which the half-life at 1 μM in data set [1] (setting [4]) was greater than 2.17 h. Further, the concentration for half-maximal inhibition (IC50) on neutrophil elastase [2] (read-out: IC50) was less than 1 nM. The molecule further returned a solubility at 24 h in “physchem” of 78 µg/mL (≈ 142 µM). At neutrophil elastase [3], this molecule had an EC50 of 1 nM. Moreover, in the data set “in vitro”, the Papp A→B at 10 μM was 7.3 ×10⁻⁶ cm/s and the Papp B→A at 10 μM was determined as 67 ×10⁻⁶ cm/s.
Consider `CC[S+]([O-])c1cc(C#N)ccc1C1C2=C(CCC2=O)N(c2cccc(C(F)(F)F)c2)C(=O)N1C` (single isomer, unassigned) [Example C.5.2, 3-Ethanesulfinyl-4-[3-methyl-2,5-dioxo-1-(3-trifluoromethyl-phenyl)-2,3,4,5,6,7-hexahydro-1H-cyclopentapyrimidin-4-yl]-benzonitrile], for which the “t1/2 INVITRO” value in data set [1] is greater than 2.17 h. This molecule registered an Aqueous solubility in the data set “physchem” of 69 µg/mL. In the data set with Caco-2 cells, the PEAB is 16 ×10⁻⁶ cm/s and the PEBA amounted to 82 ×10⁻⁶ cm/s.
For `CN1C(=O)N(c2cccc(C(F)(F)F)c2)C2=C(C(=O)CC2)C1c1ccc(C#N)cc1S(=O)(=O)CCCO` (single isomer, unassigned) [Example B.1.3A], the half-life at 1 μM in data set [1] (setting [4]) was determined as 1.52 h. In the data set “physchem”, the concentration in solution (solubility at 24 h) was 93 µg/mL (≈ 174 µM). Besides, in the data set “in vitro”, the Papp A→B at 10 μM was found to be 9.9 ×10⁻⁶ cm/s and the Papp B→A at 10 μM was 130 ×10⁻⁶ cm/s.
For the molecule `N#Cc1ccc(C2NC(=O)N(c3cccc(C(F)(F)F)c3)C3=C2C(=O)CC3)c(S(=O)(=O)CCCO)c1` (centres unmarked) [Example B.1, 4-[2,5-Dioxo-1-(3-trifluoromethyl-phenyl)-2,3,4,5,6,7-hexahydro-1H-cyclopentapyrimidin-4-yl]-3-(3-hydroxy-propane-1-sulfonyl)-benzonitrile], on neutrophil elastase [2] (setting [5]), the IC50 worked out at 2.1 nM.
The same measure, in the same setting: next, `CCNC(=O)N1C(=O)N(c2ccnc(C(F)(F)F)c2)C2=C(C(=O)CC2)C1c1ccc(C#N)cc1S(C)(=O)=O` (single isomer, unassigned) [D.4.10]: less than 1 nM.
On to `CCS(=O)(=O)c1cc(C#N)ccc1C1C2=C(CCC2=O)N(c2cccc(C(F)F)c2)C(=O)N1C` (centres unmarked) [Example D.6, 4-[1-(3-Difluoromethyl-phenyl)-3-methyl-2,5-dioxo-2,3,4,5,6,7-hexahydro-1H-cyclopentapyrimidin-4-yl]-3-ethanesulfonyl-benzonitrile], for which the IC50 at neutrophil elastase [2] (read-out: IC50) is less than 1 nM.
